What all share (assay): DTP human tumour cell line panel, 48 h
Test [1] concerns UACC-257 melanoma.
The test system of test [2] is OVCAR-8 ovarian.
Test [3] concerns RXF 393 renal.
Test [4] concerns SK-MEL-28 melanoma.
Test [5] deals with T-47D breast.
Test [6] has as its system NCI/ADR-RES ovarian.
Test [7] deals with NCI-H522 lung.
Test [8] has as its system SF-539 CNS.
Test [9] relates to OVCAR-5 ovarian.
The test system of test [10] is UACC-62 melanoma.

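Five concentrations, 48 hours, 96-well plates. GI50 is the concentration that inhibits growth by half. TGI: concentration producing complete growth inhibition.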

Consider `COC(=O)[C@H](CCCCNC(=O)OCc1ccccc1)NC(=O)[C@@H](NC(=O)Nc1cc(C(F)(F)F)cc(C(F)(F)F)c1)C(C)C`, for which the GI50 in [1] was greater than 10000 nM; in test [2], greater than 10 µM; in [3] it was greater than 10 µM; in test [4], greater than 10000 nM; in test [5], greater than 10 µM; in test [6], greater than 10 µM. Further, the GI50 in test [7] is greater than 10000 nM; in test [8], greater than 10000 nM; in test [9] it was greater than 10 µM; in test [10], greater than 10000 nM. In addition, the TGI in test [1], in test [2], in test [3], in test [4], in [5] and in [6] was greater than 10 µM throughout. Further, the TGI in test [7], in [8], in test [9] and in test [10] was greater than 10 µM in each case.
Regarding `CC(=O)/C=C/c1ccc(N(CCO)Cc2ccc(C(C)(C)C)cc2)cc1`, the GI50 in test [1] is 78100 nM; in test [2], 62.9 µM; in test [3], 65.5 µM; in test [4], 58800 nM; in [5], 31 µM; in [6], 39.1 µM. The GI50 in [7] is 84800 nM; in [8], 84300 nM; in test [9] it was 63.3 µM; in [10] it was 46600 nM. Moreover, the TGI in test [1] was 217 µM; in test [2], 210 µM; in test [3], 208 µM; in test [4], 201 µM; in test [5], 161 µM; in [6] it was 174 µM. The TGI in test [7] was 237 µM; in test [8], 212 µM; in test [9], 211 µM; in [10], 176 µM.
As to `C=C1C(=O)O[C@H]2[C@H]1CC/C(COC(=O)N[C@H](Cc1c[nH]c3ccccc13)C(=O)OC)=C\CC[C@@]1(C)O[C@@H]21`, the GI50 in test [1] is 2890 nM; in test [2], 2.8 µM; in test [3], 1.28 µM; in test [4], 1960 nM; in test [5], 1.94 µM; in test [6], 10.6 µM. The GI50 in test [7] is 1520 nM; in test [8] it was 2010 nM; in test [9], 3.25 µM; in [10] it was 1880 nM. The TGI came out at 8.74 µM in [1]; 9.13 µM in test [2]; 2.66 µM in [3]; 4.48 µM in test [4]; 5.06 µM in test [5]; 37.9 µM in [6]. Besides, the TGI in test [7] worked out at 3.22 µM; in test [8], 5.37 µM; in test [9] it was 13.8 µM; in test [10], 4.4 µM.
Turning to `C=C1C(=O)O[C@H]2[C@H]1CC/C(COC(=O)/C=C\C(=O)NCc1ccc(Cn3c(=O)sn(-c4ccc(Cl)cc4)c3=O)cc1)=C\CC[C@@]1(C)O[C@@H]21`, the GI50 in [1] is 800 nM; in test [2], 0.691 µM; in test [3], 0.476 µM; in test [4] it was 816 nM; in test [5] it was 0.881 µM; in test [6] it was 1.25 µM. Moreover, the GI50 is 632 nM in test [7], 748 nM in test [8], 0.834 µM in test [9] and 724 nM in test [10]. In addition, the TGI in [1] amounted to 1.72 µM; in [2], 2.3 µM; in test [3], 1.09 µM; in [4] it was 1.55 µM; in [5] it was 2.15 µM; in [6] it was 5.06 µM. Further, the TGI stood at 1.55 µM in [7], 1.43 µM in test [8], 1.75 µM in [9] and 1.47 µM in test [10].
With `O=c1[nH]c(=O)n(C2OC(CO)C(O)C2O)cc1F` (stereo unspecified), the GI50 is 1330 nM in test [1]; 4e-05 µM in test [3]; 47.1 nM in test [4]; 349 nM in test [7]; 0.0442 µM in test [9]; 51.5 nM in [10]. The TGI in [1] is 53.4 µM; in test [2], greater than 100 µM; in [3], 2.45 µM; in [4], greater than 100 µM; in test [5], greater than 100 µM; in test [6], greater than 100 µM. For the same compound, the TGI in test [7] was determined as 30.6 µM; in [8], 3.03 µM; in [9], 26 µM; in test [10], 7.56 µM.
For the compound `Nc1nc(N)c(-c2ccc(Cl)c(Cl)c2)c(CP(Cl)(Cl)(Cl)Br)n1`, the GI50 in test [1] is 8350 nM; in test [2], 6.51 µM; in test [3], 18.1 µM; in test [4], 20600 nM; in test [5] it was 34.1 µM; in test [6], 11.7 µM. The GI50 is 21200 nM in test [7], 12900 nM in [8], 6.96 µM in test [9] and 6400 nM in [10]. In addition, the TGI in [1] is 84.7 µM; in test [2], greater than 100 µM; in test [3], greater than 100 µM; in [4], greater than 100 µM; in [5], greater than 100 µM; in [6] it was greater than 100 µM. Moreover, the TGI in test [7] was greater than 100 µM; in test [8], greater than 100 µM; in [9], greater than 100 µM; in test [10], 32.2 µM.
Take `Nc1cc(N)c2nc(-c3ccccc3)c(NCc3ccc(Cl)c(Cl)c3)nc2c1`: the GI50 is 4530 nM in test [1]; 3.41 µM in [2]; 3.06 µM in test [3]; 18800 nM in test [4]; 19.4 µM in [5]; 17.4 µM in test [6]. In addition, the GI50 was 2050 nM in test [7], 4600 nM in test [8], 23.8 µM in test [9] and 14000 nM in [10]. Further, the TGI in test [1] was 15.7 µM; in test [2], 13.5 µM; in test [3], 16.8 µM; in test [4], 41.7 µM; in [5], 54.4 µM; in test [6], 45.6 µM. For the same compound, the TGI in test [7] came out at 4.91 µM; in test [8] it was 18.8 µM; in test [9], 40.7 µM; in test [10], 30.8 µM.
As for `COc1ccc(C(Nc2ccccn2)c2cc(C(C)(C)C)cc(C(C)(C)C)c2O)cc1` (stereo unspecified), the TGI in test [1] was greater than 100 µM; in test [2] it was greater than 100 µM; in test [3], 38.6 µM; in test [4], greater than 100 µM; in test [5], 76.4 µM; in [6] it was greater than 100 µM. For the same compound, the TGI in test [7] is 17.7 µM; in [8] it was greater than 100 µM; in [9], greater than 100 µM; in test [10], 67.1 µM.
On to `O=C(O)c1[nH]c2c([N+](=O)[O-])cc([N+](=O)[O-])cc2c1C(=O)O`, for which the TGI in test [1], in [2], in [3], in [4], in test [5] and in test [6] was greater than 100 µM throughout. In addition, the TGI in [7], in test [8], in test [9] and in test [10] was greater than 100 µM each time.
Take `C[C@@H](Oc1cc(-c2cnn(C3CCNCC3)c2)cnc1N)c1c(Cl)cc(F)cc1Cl`: the GI50 was 1490 nM in [1]; 3.83 µM in [2]; 1.5 µM in [3]; 1560 nM in test [4]; 1.74 µM in test [5]; 5.81 µM in test [6]. The GI50 is 1790 nM in test [7], 1670 nM in test [8], 2 µM in test [9] and 1610 nM in [10]. Moreover, the TGI came to 3.07 µM in test [1]; 16.3 µM in test [2]; 3.09 µM in test [3]; 3.17 µM in test [4]; 4.58 µM in test [5]; 20.1 µM in test [6]. The TGI in [7] worked out at 5.73 µM; in [8], 3.3 µM; in test [9], 10.1 µM; in test [10], 3.65 µM.
Take `Cc1ccc(NC2=CC(=O)C(=O)c3ccccc32)cc1`: the GI50 in test [1] is 1430 nM; in test [2] it was 2.4 µM; in test [3], 3.32 µM; in test [4] it was 1840 nM; in test [5], 3.68 µM; in [6] it was 2.17 µM. Further, the GI50 in [7] is 1450 nM; in test [8] it was 1800 nM; in test [9], 1.9 µM; in test [10], 1730 nM. The TGI in test [1] stood at 2.8 µM; in test [2], 7.82 µM; in test [3] it was 13.7 µM; in test [4], 3.58 µM; in [5], 18.1 µM; in [6], 17.4 µM. Further, the TGI in test [7] came to 3.18 µM; in test [8], 3.77 µM; in test [9] it was 3.54 µM; in [10], 3.23 µM.

Source of the values: PubChem BioAssay (NCI).
